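1) Cells in 96-well plates. 2) Compound, 48 h, 5 concentrations. 3) Linear interpolation between surrounding doses. 4) Unreached endpoint = highest concentration. GI50 = concentration required for 50% inhibition of growth.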 Activity calls are given as the source filed them. Rule as the data show it: active = GI50 up to about 1.1 µM and inactive = higher.
What was measured:
Experiment in all cases: NCI anticancer screen, dose series, 48 h
NCI-H460 = test system: NCI-H460
RPMI-8226 = test system: RPMI-8226
A549 = test system: A549
LOX IMVI = test system: LOX IMVI
DU-145 = test system: DU-145
U-251 = test system: U-251
HOP-62 = test system: HOP-62
IGROV-1 = test system: IGROV-1
ACHN = test system: ACHN
MDA-MB-231 = test system: MDA-MB-231
BT-549 = test system: BT-549
SF-268 = test system: SF-268
NCI/ADR-RES = test system: NCI/ADR-RES
EKVX = test system: EKVX
NCI-H522 = test system: NCI-H522
CAKI-1 = test system: CAKI-1
OVCAR-4 = test system: OVCAR-4
T47D = test system: T47D
SW-620 = test system: SW-620
SR = test system: SR

Measured: GI50

O=C(O)/C(=C/c1ccccc1)c1ccccc1
inactive: NCI-H460 > 100 µM | RPMI-8226 > 100 µM | A549 > 100 µM | LOX IMVI > 100 µM | DU-145 > 100 µM | U-251 > 100 µM | HOP-62 > 100 µM | IGROV-1 > 100 µM | ACHN > 100 µM | MDA-MB-231 > 100 µM | BT-549 > 100 µM | SF-268 > 100 µM | NCI/ADR-RES > 100 µM | EKVX > 100 µM | NCI-H522 > 100 µM | CAKI-1 > 100 µM | OVCAR-4 > 100 µM | T47D > 100 µM | SW-620 > 100 µM

Cc1ccc(Nc2c3c(c(C#N)c4nc5ccccc5n24)CCCC3)cc1
inactive: NCI-H460 16.9 µM | A549 12.5 µM | LOX IMVI 22.1 µM | DU-145 52.7 µM | U-251 17.5 µM | IGROV-1 28.2 µM | ACHN 21.6 µM | MDA-MB-231 22.5 µM | BT-549 35.8 µM | SF-268 > 100 µM | NCI/ADR-RES 21.3 µM | EKVX 17.3 µM | NCI-H522 14.3 µM | CAKI-1 25.4 µM | OVCAR-4 20.7 µM | T47D 13.7 µM | SW-620 15.4 µM

CC(=O)Oc1ccc2c(c1)Oc1cc(C(C)=O)ccc1C21OC(=O)c2ccccc21 (configuration not stated)
inactive: NCI-H460 > 100 µM | RPMI-8226 30.2 µM | A549 > 100 µM | LOX IMVI > 100 µM | DU-145 > 100 µM | U-251 > 100 µM | HOP-62 64.6 µM | IGROV-1 85.5 µM | ACHN > 100 µM | MDA-MB-231 > 100 µM | BT-549 > 100 µM | SF-268 1.8 µM | NCI/ADR-RES > 100 µM | EKVX > 100 µM | NCI-H522 > 100 µM | CAKI-1 > 100 µM | OVCAR-4 > 100 µM | T47D > 100 µM | SW-620 > 100 µM

CN(/N=C/C=N/N(C)C1=NCCCN1)C1=NCCCN1
inactive: NCI-H460 > 100 µM | A549 > 100 µM | LOX IMVI > 100 µM | U-251 > 100 µM | HOP-62 > 100 µM | IGROV-1 > 100 µM | ACHN > 100 µM | MDA-MB-231 > 100 µM | BT-549 > 100 µM | SF-268 > 100 µM | NCI/ADR-RES > 100 µM | EKVX > 100 µM | NCI-H522 > 100 µM | CAKI-1 > 100 µM | OVCAR-4 > 100 µM | SR > 100 µM | SW-620 > 100 µM
